Data reported in the NIST ThermoML archive (doi:10.1016/j.jct.2016.08.008).
± gives the expanded uncertainty stated by the source.

Columns and labels:
[1] = Molar enthalpy of transition or fusion; details: Crystal; DSC
[2] = for viscosity / mass density: 101.33 kPa, Liquid; for viscosity: Falling or rolling sphere viscometry; for mass density: Vibrating tube method
[3] = activity coefficient (dimensionless); of the first substance listed, at infinite dilution; xn = mol fraction of the nth substance listed; details: 101.33 kPa, Liquid, Chromatography, x1 = 0

CCCCCCCCCCCCn1cc[n+](C)c1.O=S(=O)([N-]S(=O)(=O)C(F)(F)F)C(F)(F)F
Details	Molar enthalpy of transition or fusion [kcal/mol]
[1]	8.6 ± 0.287

[2]
Details	mass density [kg/m3]	viscosity [mPa·s]
298.15 K	1242.9 ± 2.9	125 ± 4
303.15 K	1238.8 ± 2.9	–
308.15 K	1234.6 ± 2.9	76.7 ± 1.6
313.15 K	1230.4 ± 2.9	–
318.15 K	1226.2 ± 2.9	52.7 ± 0.9
323.15 K	1222 ± 2.9	–
328.15 K	1217.8 ± 2.9	37 ± 0.6
333.15 K	1213.6 ± 2.9	–
338.15 K	1209.5 ± 2.9	26.6 ± 0.5
343.15 K	1205.3 ± 2.9	–
348.15 K	1201.2 ± 2.9	19.5 ± 0.3
353.15 K	1197.1 ± 2.9	–
358.15 K	1193 ± 2.8	14.7 ± 0.3
363.15 K	1188.9 ± 2.8	–
368.15 K	1184.9 ± 2.8	11.4 ± 0.2

Details	Normal melting temperature [°C]
[2], Crystal, DTA	19.2 ± 0.4

CC1CCCCC1 [methylcyclohexane] + CCCCCCCCCCCCn1cc[n+](C)c1.O=S(=O)([N-]S(=O)(=O)C(F)(F)F)C(F)(F)F
[3]
Details	activity coefficient
318.15 K	2.42 ± 0.16
328.15 K	2.46 ± 0.17
338.15 K	2.49 ± 0.17
348.15 K	2.52 ± 0.17
358.15 K	2.55 ± 0.17
368.15 K	2.58 ± 0.18

CC(C)(C)O [2-methylpropan-2-ol] + CCCCCCCCCCCCn1cc[n+](C)c1.O=S(=O)([N-]S(=O)(=O)C(F)(F)F)C(F)(F)F
[3]
Details	activity coefficient
318.15 K	1.12 ± 0.07
328.15 K	1.08 ± 0.07
338.15 K	1.04 ± 0.07
348.15 K	0.998 ± 0.062
358.15 K	0.964 ± 0.061
368.15 K	0.933 ± 0.059

CC(C)O [propan-2-ol] + CCCCCCCCCCCCn1cc[n+](C)c1.O=S(=O)([N-]S(=O)(=O)C(F)(F)F)C(F)(F)F
[3]
Details	activity coefficient
318.15 K	1.34 ± 0.09
328.15 K	1.26 ± 0.08
338.15 K	1.18 ± 0.08
348.15 K	1.12 ± 0.07
358.15 K	1.07 ± 0.07
368.15 K	1.02 ± 0.06

C1CCCCCC1 [cycloheptane] + CCCCCCCCCCCCn1cc[n+](C)c1.O=S(=O)([N-]S(=O)(=O)C(F)(F)F)C(F)(F)F
[3]
Details	activity coefficient
318.15 K	2.43 ± 0.17
328.15 K	2.45 ± 0.17
338.15 K	2.47 ± 0.17
348.15 K	2.49 ± 0.17
358.15 K	2.5 ± 0.17
368.15 K	2.52 ± 0.17

c1ccncc1 [pyridine] + CCCCCCCCCCCCn1cc[n+](C)c1.O=S(=O)([N-]S(=O)(=O)C(F)(F)F)C(F)(F)F
[3]
Details	activity coefficient
318.15 K	0.387 ± 0.034
328.15 K	0.404 ± 0.034
338.15 K	0.42 ± 0.04
348.15 K	0.435 ± 0.035
358.15 K	0.451 ± 0.036
368.15 K	0.466 ± 0.036

C1COCCO1 [1,4-dioxane] + CCCCCCCCCCCCn1cc[n+](C)c1.O=S(=O)([N-]S(=O)(=O)C(F)(F)F)C(F)(F)F
[3]
Details	activity coefficient
318.15 K	0.474 ± 0.037
328.15 K	0.499 ± 0.038
338.15 K	0.524 ± 0.039
348.15 K	0.548 ± 0.04
358.15 K	0.572 ± 0.041
368.15 K	0.597 ± 0.042

O [water] + CCCCCCCCCCCCn1cc[n+](C)c1.O=S(=O)([N-]S(=O)(=O)C(F)(F)F)C(F)(F)F
[3]
Details	activity coefficient
318.15 K	4.49 ± 0.31
328.15 K	4.02 ± 0.27
338.15 K	3.64 ± 0.25
348.15 K	3.31 ± 0.23
358.15 K	3.03 ± 0.21
368.15 K	2.78 ± 0.19

CCCOCCC [dipropyl ether] + CCCCCCCCCCCCn1cc[n+](C)c1.O=S(=O)([N-]S(=O)(=O)C(F)(F)F)C(F)(F)F
[3]
Details	activity coefficient
318.15 K	1.67 ± 0.11
328.15 K	1.73 ± 0.12
338.15 K	1.79 ± 0.12
348.15 K	1.84 ± 0.12
358.15 K	1.89 ± 0.13
368.15 K	1.94 ± 0.13

CCCCCCCCCC [decane] + CCCCCCCCCCCCn1cc[n+](C)c1.O=S(=O)([N-]S(=O)(=O)C(F)(F)F)C(F)(F)F
[3]
Details	activity coefficient
318.15 K	5.82 ± 0.4
328.15 K	5.88 ± 0.4
338.15 K	5.95 ± 0.41
348.15 K	6 ± 0.41
358.15 K	6.06 ± 0.41
368.15 K	6.12 ± 0.42

CCCC(C)=O [pentan-2-one] + CCCCCCCCCCCCn1cc[n+](C)c1.O=S(=O)([N-]S(=O)(=O)C(F)(F)F)C(F)(F)F
[3]
Details	activity coefficient
318.15 K	0.421 ± 0.035
328.15 K	0.445 ± 0.036
338.15 K	0.468 ± 0.037
348.15 K	0.492 ± 0.037
358.15 K	0.516 ± 0.038
368.15 K	0.539 ± 0.039

C1CCOC1 [tetrahydrofuran] + CCCCCCCCCCCCn1cc[n+](C)c1.O=S(=O)([N-]S(=O)(=O)C(F)(F)F)C(F)(F)F
[3]
Details	activity coefficient
318.15 K	0.394 ± 0.034
328.15 K	0.417 ± 0.035
338.15 K	0.44 ± 0.04
348.15 K	0.462 ± 0.036
358.15 K	0.484 ± 0.037
368.15 K	0.508 ± 0.038

C=CCCC [1-pentene] + CCCCCCCCCCCCn1cc[n+](C)c1.O=S(=O)([N-]S(=O)(=O)C(F)(F)F)C(F)(F)F
[3]
Details	activity coefficient
318.15 K	1.82 ± 0.12
328.15 K	1.88 ± 0.13
338.15 K	1.93 ± 0.13
348.15 K	1.99 ± 0.14
358.15 K	2.04 ± 0.14
368.15 K	2.08 ± 0.14

C1CCCC1 [cyclopentane] + CCCCCCCCCCCCn1cc[n+](C)c1.O=S(=O)([N-]S(=O)(=O)C(F)(F)F)C(F)(F)F
[3]
Details	activity coefficient
318.15 K	1.75 ± 0.12
328.15 K	1.77 ± 0.12
338.15 K	1.8 ± 0.12
348.15 K	1.82 ± 0.12
358.15 K	1.84 ± 0.12
368.15 K	1.86 ± 0.13

CCOCC [diethyl ether] + CCCCCCCCCCCCn1cc[n+](C)c1.O=S(=O)([N-]S(=O)(=O)C(F)(F)F)C(F)(F)F
[3]
Details	activity coefficient
318.15 K	0.983 ± 0.062
328.15 K	1.03 ± 0.06
338.15 K	1.07 ± 0.07
348.15 K	1.12 ± 0.07
358.15 K	1.16 ± 0.07
368.15 K	1.2 ± 0.08

CCCO [propan-1-ol] + CCCCCCCCCCCCn1cc[n+](C)c1.O=S(=O)([N-]S(=O)(=O)C(F)(F)F)C(F)(F)F
[3]
Details	activity coefficient
318.15 K	1.45 ± 0.1
328.15 K	1.36 ± 0.09
338.15 K	1.29 ± 0.08
348.15 K	1.22 ± 0.08
358.15 K	1.16 ± 0.07
368.15 K	1.11 ± 0.07

C=C(C)c1ccccc1 [(1-methylethenyl)benzene] + CCCCCCCCCCCCn1cc[n+](C)c1.O=S(=O)([N-]S(=O)(=O)C(F)(F)F)C(F)(F)F
[3]
Details	activity coefficient
318.15 K	0.79 ± 0.05
328.15 K	0.842 ± 0.054
338.15 K	0.896 ± 0.057
348.15 K	0.949 ± 0.06
358.15 K	1 ± 0.06
368.15 K	1.05 ± 0.07

Cc1ccc(C)cc1 [1,4-dimethylbenzene] + CCCCCCCCCCCCn1cc[n+](C)c1.O=S(=O)([N-]S(=O)(=O)C(F)(F)F)C(F)(F)F
[3]
Details	activity coefficient
318.15 K	0.869 ± 0.056
328.15 K	0.914 ± 0.058
338.15 K	0.958 ± 0.06
348.15 K	1 ± 0.06
358.15 K	1.05 ± 0.07
368.15 K	1.09 ± 0.07

CO [methanol] + CCCCCCCCCCCCn1cc[n+](C)c1.O=S(=O)([N-]S(=O)(=O)C(F)(F)F)C(F)(F)F
[3]
Details	activity coefficient
318.15 K	1.29 ± 0.08
328.15 K	1.22 ± 0.08
338.15 K	1.15 ± 0.07
348.15 K	1.1 ± 0.07
358.15 K	1.05 ± 0.07
368.15 K	1.01 ± 0.06

CCC(C)(C)C [2,2-dimethylbutane] + CCCCCCCCCCCCn1cc[n+](C)c1.O=S(=O)([N-]S(=O)(=O)C(F)(F)F)C(F)(F)F
[3]
Details	activity coefficient
318.15 K	2.83 ± 0.19
328.15 K	2.89 ± 0.2
338.15 K	2.95 ± 0.2
348.15 K	3 ± 0.2
358.15 K	3.05 ± 0.21
368.15 K	3.1 ± 0.21

CCCCO [butan-1-ol] + CCCCCCCCCCCCn1cc[n+](C)c1.O=S(=O)([N-]S(=O)(=O)C(F)(F)F)C(F)(F)F
[3]
Details	activity coefficient
318.15 K	1.55 ± 0.1
328.15 K	1.46 ± 0.1
338.15 K	1.38 ± 0.09
348.15 K	1.31 ± 0.09
358.15 K	1.24 ± 0.08
368.15 K	1.19 ± 0.08
